Laboratory results: the supplement of paper PMC13380429

Key:
Settings in all cases: 72 h
Calu-3 [1] = assay: cell viability relative to DMSO; higher = less toxic
HepG2 [2] = assay: as above
Vero E6 [3] = assay: as above
Caco-2 [4] = assay: as above
U2OS [5] = assay: as above
Calu-3 [6] = assay: drug sensitivity score (DSS) for viability; higher = more toxic; extreme values may be limits of the assay
HepG2 [7] = assay: as above
Vero E6 [8] = assay: as above
Caco-2 [9] = assay: as above
U2OS [10] = assay: as above
Calu-3 [11] = assay: relative viability EC50 (midpoint between 100% and the lowest measured viability); higher = less toxic
Vero E6 [12] = assay: as above
Caco-2 [13] = assay: as above
U2OS [14] = assay: as above

| Structure (SMILES) | cell viability (Calu-3 [1]; 1 nM) [%] | cell viability (Calu-3 [1]; 10 nM) [%] | cell viability (Calu-3 [1]; 100 nM) [%] | cell viability (Calu-3 [1]; 1000 nM) [%] | cell viability (Calu-3 [1]; 10000 nM) [%] | cell viability (HepG2 [2]; 1 nM) [%] | cell viability (HepG2 [2]; 10 nM) [%] | cell viability (HepG2 [2]; 100 nM) [%] | cell viability (HepG2 [2]; 1000 nM) [%] | cell viability (HepG2 [2]; 10000 nM) [%] | cell viability (Vero E6 [3]; 1 nM) [%] | cell viability (Vero E6 [3]; 10 nM) [%] | cell viability (Vero E6 [3]; 100 nM) [%] | cell viability (Vero E6 [3]; 1000 nM) [%] | cell viability (Vero E6 [3]; 10000 nM) [%] | cell viability (Caco-2 [4]; 1 nM) [%] | cell viability (Caco-2 [4]; 10 nM) [%] | cell viability (Caco-2 [4]; 100 nM) [%] | cell viability (Caco-2 [4]; 1000 nM) [%] | cell viability (Caco-2 [4]; 10000 nM) [%] | cell viability (U2OS [5]; 1 nM) [%] | cell viability (U2OS [5]; 10 nM) [%] | cell viability (U2OS [5]; 100 nM) [%] | cell viability (U2OS [5]; 1000 nM) [%] | cell viability (U2OS [5]; 10000 nM) [%] | drug sensitivity score (Calu-3 [6]) | drug sensitivity score (HepG2 [7]) | drug sensitivity score (Vero E6 [8]) | drug sensitivity score (Caco-2 [9]) | drug sensitivity score (U2OS [10]) | relative viability EC50 (Calu-3 [11]) [µM] | relative viability EC50 (Vero E6 [12]) [µM] | relative viability EC50 (Caco-2 [13]) [µM] | relative viability EC50 (U2OS [14]) [µM] |
| --- | --- | --- | --- | --- | --- | --- | --- | --- | --- | --- | --- | --- | --- | --- | --- | --- | --- | --- | --- | --- | --- | --- | --- | --- | --- | --- | --- | --- | --- | --- | --- | --- | --- | --- |
| CC(C)C[C@@H](C(=O)N[C@@H](Cc1ccc(OCc2ccccc2)cc1)C(=O)NC(C)(C)C)N(C)Cc1ccc(C(C)(C)C)cc1 | 93.4 | 105 | 97.5 | 111 | 87.8 | 107 | 101 | 93.5 | 99.1 | 68 | 103 | 103 | 106 | 97.8 | 95.7 | 88.8 | 95.9 | 94.1 | 100 | 87.5 | 97.4 | 101 | 97.5 | 101 | 85.5 | 0 | 1.6 | 0 | 0 | 0.1 | > 10 | > 10 | > 10 | > 10 |
| COCc1nnc(N2CC(Oc3ccc(F)cc3Cl)C2)n1-c1ccc(OC)nc1 | 92.8 | 103 | 101 | 104 | 113 |  |  |  |  |  | 97.8 | 93.1 | 101 | 90.9 | 106 | 88.5 | 105 | 102 | 105 | 97.5 | 93.3 | 93.6 | 95.6 | 103 | 97.4 | 0 |  | 0 | 0 | 0 | > 10 | > 10 | > 10 | > 10 |
| Nc1nc(NCCNc2ncc(-n3ccnc3)c(-c3ccc(Cl)cc3Cl)n2)ccc1[N+](=O)[O-] | 96.3 | 98.1 | 104 | 111 | 112 |  |  |  |  |  | 96.1 | 98 | 94.2 | 97.1 | 106 | 96.7 | 99.9 | 100 | 111 | 111 | 96.9 | 101 | 96.7 | 103 | 110 | 0 |  | 0 | 0 | 0 | > 10 | > 10 | > 10 | > 10 |
| NCC(=O)Nc1ccc(-n2nc(C(F)(F)F)cc2-c2ccc3c(ccc4ccccc43)c2)cc1 [AR-12] | 103 | 98.2 | 98.9 | 102 | 45.4 | 110 | 96.1 | 103 | 105 | 71.5 | 97.4 | 94.3 | 95.7 | 80.4 | 68.2 | 96.8 | 91 | 87.9 | 96.8 | 92.1 | 89.7 | 98.9 | 95 | 100 | 89 | 2.7 | 0.9 | 3.5 | 0 | 0 | 3.39 |  | > 10 | > 10 |
| Cc1ccccc1NC(=O)Nc1ccc(CC(=O)N(C)[C@@H](CC(C)C)C(=O)NCC[C@H](NC(=O)[C@@H]2CCCN2S(=O)(=O)c2cc(Cl)cc(Cl)c2)C(=O)O)cc1 [BIO-5192] | 104 | 102 | 96.5 | 108 | 104 |  |  |  |  |  | 98.3 | 93.9 | 93.1 | 96.7 | 109 | 98 | 97.3 | 90.5 | 99.5 | 96.8 | 102 | 96.2 | 95.1 | 105 | 97.6 | 0 |  | 0 | 0 | 0 | > 10 | > 10 | > 10 | > 10 |
| CNC(=O)[C@H]1O[C@@H](n2cnc3c(NCc4cccc(I)c4)ncnc32)[C@H](O)[C@@H]1O [IB-MECA] | 96.3 | 98.3 | 93.4 | 109 | 85.3 | 107 | 68.7 | 98.3 | 68.8 | 88.8 | 103 | 97.1 | 99.8 | 97 | 102 | 112 | 96.2 | 99.8 | 105 | 93.3 | 101 | 105 | 102 | 106 | 95.8 | 0.1 | 3.3 | 0 | 0 | 0 | > 10 | > 10 | > 10 | > 10 |
| CN(C[C@@H]1COCCO1)S(=O)(=O)Nc1ccc2ccc3ncc(-c4cnn(C)c4)cc3c(=O)c2c1 [MK-2461] | 81.9 | 89 | 84 | 90.7 | 93.9 | 96.6 | 96.6 | 96.5 | 91.4 | 58.6 | 103 | 97.7 | 97.3 | 93.2 | 59.7 | 103 | 97.9 | 94.5 | 99.7 | 64.5 | 89.1 | 98.8 | 99.2 | 96.9 | 64.1 | 0 | 3.5 | 3.1 | 1.7 | 2.2 | > 10 |  |  |  |
